Experiments:
PC-3 [1] = experiment: Growth inhibition assay (SRB, 96 h); format: cell-based, human; settings: PC-3, 96 h
Source text: (§1) MTT (3-(4,5-dimethylthiazol-2-yl)-2,5-diphenyltetrazolium bromide) assay was also used for the leukemia cell lines. […] Cells were stained with SRB solution or MTT solution.

HT-29 = experiment: Growth inhibition assay (SRB, 96 h); format: cell-based; settings: Homo sapiens, HT-29, 96 h
Source text: as §1

MCF-7 = experiment: Growth inhibition assay (SRB, 96 h); format: cell-based; settings: Homo sapiens, MCF7; MCF-7, 96 h
Source text: as §1

TSU-Pr1 = experiment: Growth inhibition assay (SRB, 96 h); format: cell-based; settings: Homo sapiens, TSU-Pr1, 96 h
Source text: as §1

K562/Dox [2] = experiment: Growth inhibition assay (MTT, 96 h); format: cell-based, human; settings: for IC50: Homo sapiens, K562/Dox, P-gp over-expressed, 96 h; for resistance factor (ratio of IC50 resistant subline to parental cell line): K562/Dox vs K562 (P-gp)
Source text: as §1

HEK293-MRP2 = experiment: Growth inhibition assay (96 h); format: cell-based, human; settings: HEK293-MRP2 vs HEK293-pcDNA3.1
[3] = system: MRP2 (over-expressed in the cells); experiment: Growth inhibition assay (96 h); format: cell-based, human; settings: human, HEK293 cells over-expressing MRP2 (HEK293-MRP2); HEK293-MRP2, MRP2 over-expressed, 96 h
[4] = system: human cancer cell lines from prostate, colon, breast, and bladder; experiment: Cell proliferation by SRB assay, panel of cell lines; format: cell-based; settings: read-out: IC50 values, range over cell lines
Description: as §1
Cell proliferation was measured by SRB assay.

tubulin = system: T1, tubulin; experiment: In vitro tubulin polymerization assay; format: biochemical, bovine; settings: cell free, turbidity 340 nm, 40 min; read-out: IC50 of microtubule formation (tubulin polymerization)
T1 construct: IC50 of microtubule formation (tubulin polymerization); other: cell free, turbidity 340 nm, 40 min
Description: Tubulin polymerization kits (Cytoskeleton, Denver, Colo.) were used to study tubulin depolymerization. The reaction contained 50 μL of 4 mg/mL tubulin in PEM buffer (80 mM PIPES, pH 7.0, 0.5 mM EGTA, 2 mM MgCl2, 1 mM GTP, 10% glycerol). The procedure was done according to the manufacturer's protocol. Tubulin polymerization was monitored in a UV spectrophotometer for 40 minutes at 340 nm at 37° C.

MES-SA xenografts = experiment: In vivo antitumor efficacy, MES-SA xenograft; parameters: species or system mice; settings: q2d, i.p.
Description: The control group was treated with vehicle (10% DMSO in PEG300).

PC-12 cells = experiment: In vitro NGF-dependent neurite outgrowth; format: cell-based
Description: PC-12 cells were seeded in 6-well plates coated with poly-D-lysine (BD, Franklin Lakes, N.J.) (10000 cells/well). After 6 h, cells were pretreated for 3 days by adding 100 ng/mL murine 2.5S β-NGF (Promega, Madison, Wis.) to induce neuronal differentiation and neurite outgrowth. Differentiated cells were then treated for 24 h with compounds at various concentrations in the presence of NGF (100 ng/mL). Vinblastine and docetaxel were used as positive controls. After compound treatments, approximately 100 cells in each well were randomly chosen and the numbers of cells with no neurites, short neurites (<2×cell body), and long neurites (>2×cell body) were counted (n=3).

DU-145 = experiment: Cell viability SRB assay, 96 h; format: cell-based; settings: Homo sapiens, DU-145, 96 h
Description: (§2) Cell viability (LNCaP, PC-3 prostate, DU145, PPC-1, and TSU-Pr1 prostate cancer cell lines, HT-29 colon cancer cell line, and MCF-7 breast cancer cell line) was quantitated using the sulforhodamine B (SRB) assay after 96 h coincubation with different concentrations of compound in 96-well plates. Cell viability of leukemia cells (K562 and doxorubicin-resistant K562/Dox) was quantitated by MTT assay after 96 h coincubation with different concentrations of compound in 96-well plates. Drug-induced apoptosis was determined by anti-histone ELISA assay and DNA laddering. Cell cycle progression was assessed by propidium iodide staining and fluorescence-activated cell sorting (FACS) analysis. In vitro tubulin polymerization assay was determined by CytoDYNAMIX ScreenTM3 (CDS-03) kits according to the manufacturer's instructions. Anti-apoptosis protein (Bcl-2 and Bcl-xl) and pro-apoptosis protein (Bax) were examined in LNCaP and PC-3 after 24 h incubation with different concentrations of compound 13 by Western blot assay. In vivo PC-3 xenograft studies were conducted by i.v. dosing of 50 mg/kg, 100 mg/kg and 150 mg/kg for 2 weeks.
(§3) Cells were plated in 96-well plates at a density of 800-5,000 cells/well, depending on the cell line, in their required growth media containing 10% fetal bovine serum. Preliminary studies were performed with each cell line using a variety of cell densities and incubation times to determine appropriate seeding densities. The compound of interest was dissolved in DMSO, diluted in cell culture medium (final DMSO concentration was less than 0.5% v/v), and added to quadruplicate wells at final concentrations ranging from 0 to 100 μM. Control wells to which only drug-free vehicle was added were included as negative controls.
(§4) Cells were incubated for 96 hour at 37° C. in a humidified atmosphere containing 5% carbon dioxide.
(§5) Cells were stained with SRB solution. […] WinNonlin was provided by a Pharsight Academic License to The Ohio State University.

LNCaP = experiment: Cell viability SRB assay, 96 h; format: cell-based; settings: Homo sapiens
Description: as §2, §3, §4, §5

PC-3 [5] = experiment: Cell viability SRB assay, 96 h; format: cell-based; settings: Homo sapiens, PC-3, 96 h
Description: as §2, §3, §4, §5

PPC-1 = experiment: Cell viability SRB assay, 96 h; format: cell-based; settings: Homo sapiens, PPC-1, 96 h
Description: as §2, §3, §4, §5

TSU = experiment: Cell viability SRB assay, 96 h; format: cell-based; settings: Homo sapiens, TSU (TSU-Pr1)
Description: as §2, §3, §4, §5

K562/Dox [6] = experiment: Cell viability MTT assay, 96 h; format: cell-based; settings: Homo sapiens, doxorubicin-resistant
Description: (§6) Cells were seeded in 96-well plates and incubated with different concentrations of compound 13, 68 or other anticancer drugs for 96 h. Cell viability was quantitated by MTT assay. […] Table 4 is a comparison of the IC50 of compounds 13, 68 and other anticancer drugs in the K562 and doxorubicin-resistant K562/DOX cell lines.

K562 = experiment: Cell viability MTT assay, 96 h; format: cell-based; settings: Homo sapiens
Description: as §6

| SMILES | IC50 (PC-3 [1]; Homo sapiens) [nM] | IC50 (HT-29) [nM] | IC50 (MCF-7) [nM] | IC50 (TSU-Pr1) [nM] | IC50 (K562/Dox [2]) [nM] | resistance factor (ratio of IC50 resistant subline to parental cell line) (K562/Dox [2]) | resistance factor (ratio of IC50 resistant subline to parental cell line) (HEK293-MRP2) | IC50 at 96 h [3] [nM] | IC50 [4] [nM] | IC50 (tubulin) [nM] | IC50 (DU-145) [nM] | IC50 (LNCaP) [nM] | IC50 (PC-3 [5]) [nM] | IC50 (PPC-1) [nM] | IC50 (TSU) [nM] | IC50 (K562/Dox [6]) [nM] | IC50 (K562) [nM] | further results |
| --- | --- | --- | --- | --- | --- | --- | --- | --- | --- | --- | --- | --- | --- | --- | --- | --- | --- | --- |
| COc1cc(C(=O)c2cccc(-c3cc4ccccc4[nH]3)c2)cc(OC)c1OC [Compound 68, [3-(1H-Indol-2-yl)-phenyl]-(3,4,5-trimethoxy-phenyl)-methanone] | 28 | 15.1 ± 1.3 | 39.2 ± 2.9 | 17.6 ± 2.1 | 18 ± 4.4 | (0.8) | (1.3) | 31.5 ± 8 | 15.1 to 39.2 | 381 | 23 ± 4.1 | 13 ± 3.5 | 28 ± 2 | 19 ± 1.5 | 18 ± 2.1 | 18 ± 4.4 | 23.6 ± 2.4 | IC50 (PC-3 [1]): 28.2 ± 2 nM; TGI (tumor growth inhibition) (MES-SA xenografts; 5 mg/kg): 47%; TGI (tumor growth inhibition) (MES-SA xenografts; 10 mg/kg): 74%; cells with neurites (PC-12 cells; PC12, 50 nM, 'a more toxic dose than IC50 value'): 60%; cells showing neurite elongation (PC-12 cells; PC12, NGF 100 ng/mL, 24 h, 50 nM (vehicle 88%)): 59% |
| O=C(c1cccc(-c2cc3ccccc3[nH]2)c1)c1cc2ccccc2[nH]1 [Compound 13, (1H-indol-2-yl)-[3-(1H-indol-2-yl)phenyl]methanone] | – | – | – | – | – | – | – | – | – | – | 138 ± 12.6 | 442 ± 2.4 | 81.1 ± 9.6 | 67.3 ± 1.1 | 33.8 ± 1.8 | 78.2 ± 2.9 | 63.6 ± 2.4 | – |
| CC[C@]1(O)C[C@@H]2CN(CCc3c([nH]c4ccccc34)[C@@](C(=O)OC)(c3cc4c(cc3OC)N(C)[C@H]3[C@@](O)(C(=O)OC)[C@H](OC(C)=O)[C@]5(CC)C=CCN6CC[C@]43[C@@H]65)C2)C1 [Vinblastine] | 1 | 2.4 ± 0.2 | […] | 1.6 ± 0.1 | 268 ± 48 | […] | […] | 18.1 ± 4 | 1.1 to 6.3 | […] | – | – | – | – | – | […] | 0.3 ± 0.1 | resistance factor (ratio of IC50 resistant subline to parental cell line) (HEK293-MRP2; listed as vinblastine): […]; TGI (tumor growth inhibition) (MES-SA xenografts; 0.5 mg/kg): 48%; cells with long neurites (PC-12 cells; PC12, NGF 100 ng/mL, 24 h, 5 nM): 1.5%; cells with elongated neurites (PC-12 cells; PC12, NGF 100 ng/mL, 24 h, 5 nM (vehicle 88%)): Twenty-one |

Source: patent publication US20120022121A1, “INDOLES, DERIVATIVES AND ANALOGS THEREOF AND USES THEREFOR” (priority 2007, published 2012)
